Experimental data reported in EP0559845B1, “Use of compounds in preventing endotoxin shock” (priority 1991, dated 1992).

What was measured:
sheep = test: Toxicity of lipid X in sheep; type: in vivo; details: 40 sheep injected
Procedure: Mixed breed sheep weighing 30-70 kg were obtained from the University of Wisconsin Experimental Farms. Sheep were prepared as follows: at least 24 hours before each experiment, catheters were percutaneously placed in the pulmonary artery. Any other catheterizations that were required for infusion were done at this time. All studies were performed on awake, unrestrained sheep placed in portable stanchions with food and water ad libitum. Electronically calculated pulmonary artery pressures as well as heart rates were recorded at various intervals on a polygraph. To ensure a stable baseline prior to the injection of test compounds, approximately 1 hour of baseline measurements were recorded.
To test for the toxicity of lipid X in mice, C57BL/10 mice were challenged with 750, 2000 or 5000 µg of lipid X intraperitoneally (12 mice) or with 750, 1500 or 3000 µg intravenously (7 mice). […] Consequently, lipid X appeared to be nontoxic in mice, as in sheep.
About 30 sheep were examined by Burhop with regard to lipid X toxicity.

mice (strain C57BL/10) = test: Protection of mice against lethal endotoxemia; type: in vivo; details: for mice survived: intravenous
Procedure: Eight week old mice (strain C57BL/10) were allowed to rest for at least 7 days following their arrival and were sexually segregated and housed at 5 per cage with food and water ad libitum. Intravenous injection of a GTPase inhibiting compound (lipid X dissolved in saline as described above) and/or lipopolysaccharide was achieved by the retroorbital sinus route using a 27 gauge needle. No more than 0.1 ml of fluid was injected at a time. Just prior to injection, the mice were lightly anesthetized with ether. Following the injection, mice were observed every 0.5-6 hours and the time of death was recorded. In a few experiments, mice were injected by the intraperitoneal route with solutions of lipid X and/or lipopolysaccharide similar to those described above.
The lethal dose of E. coli endotoxin was determined both for the intravenous and for the intraperitoneal challenge. The lethal dose that killed 100% of the mice (LD100) was 250 µg intravenously and 500 µg intraperi toneally. (It is important to standardize each lot of endotoxin with each lot of mice.) To determine the approximate dose of lipid X needed to protect against a lethal challenge of endotoxin, mice were pretreated with lipid X intraperitoneally 2 hours before challenge with 1500 µg of endotoxin, which is 3 times the LD100 dose. Pretreatment of mice with lipid X appeared to prolong the time to death four-fold (from about 20 hours to 80 hours).
Because both lipid X and lipopolysaccharide (LPS) were given intraperitoneally in these preliminary experiments, the possibility existed of slow or variable rates of absorption. Consequently, an intravenous challenge route was selected to test for protective efficiency. Mice were given 750 µg of lipid X from 24 hours prior to 6 hours after endotoxin challenge with 1-2 LD100 doses. Forty-one percent of mice receiving 500 µg lipid X from 6 hours prior to endotoxin challenge through 1 hour after LPS challenge survived. When a lower endotoxin challenge dose (250 µg) was used, 81% of the mice survived if treated with lipid X from 1 hour prior to through 4 hours post LPS challenge. […] Perhaps this is due to the fact that those animals were anesthetized twice in a short period and received the toxic endotoxin challenge before receiving lipid X. The reversal of the lethal toxicity of endotoxin at times as late as 4 hours after endotoxin challenge is especially striking. […] By 4 hours after injection of the 250 µg of intravenous lipopolysaccharide, the mice had stopped normal behavior, i.e. nesting had stopped, decreased spontaneous activity occurred, and the animals were shaking.

In the case of `CCCCCCCCCCC[C@@H](O)CC(=O)N[C@H]1[C@@H](OP(=O)(O)O)O[C@H](CO)[C@@H](O)[C@@H]1OC(=O)C[C@H](O)CCCCCCCCCCC` [lipid X], the “adverse complications of lipid X administration” value (sheep) is reported as “no serious adverse complications”, the mice survived (mice (strain C57BL/10); endotoxin challenge 250 µg, lipid X from 1 hour prior through 4 hours post LPS challenge) is reported as 81% and the mice survived (mice (strain C57BL/10); printed '500 µg lipid X', from 6 hours prior to endotoxin challenge through 1 hour after) is reported as “Forty-one”. The “prevention of lethal endotoxicity on late treatment” value (mice (strain C57BL/10); lipid X given 6 hours after lipopolysaccharide) was “appears to prevent lethal endotoxicity”, the “prolongation of the time to death” value (mice (strain C57BL/10); lipid X intraperitoneally 2 hours before 1500 µg endotoxin) was “four-fold” and the time to death (mice (strain C57BL/10); lipid X intraperitoneally 2 hours before 1500 µg endotoxin (3 times LD100), control about 20 hours) was roughly 80 h.
